Measured values as given in US8530667B2, “Herbicides” (Syngenta Limited, priority 2007, dated 2013).

How the values were obtained:
Type in all cases: in vivo
[1] = test system: Digitaria sanguinalis (DIGSA); assay: Example A pre-emergence herbicidal activity, glasshouse pot test; conditions: Rate 250 g/ha, evaluated 19 or 20 days later, read-out: Pre-Emergence Activity DIGSA (100=total damage to plant; 0=no damage to plant)
Procedure: (§1) Seeds of a variety of test species were sown in standard soil in pots. After cultivation for one day (pre-emergence) or after 10 days cultivation (post-emergence) under controlled conditions in a glasshouse, the plants were sprayed with an aqueous spray solution derived from the formulation of the technical active ingredient in 0.6 ml acetone and 45 ml formulation solution containing 10.6% Emulsogen EL (Registry number 61791-12-6), 42.2% N-methylpyrrolidone, 42.2% dipropylene glycol monomethyl ether (Registry number 34590-94-8) and 0.2% X-77 (Registry number 11097-66-8). The test plants were then grown in a greenhouse under optimum conditions until, 14 or 15 days later for post-emergence and 19 or 20 days for pre-emergence, the test was evaluated (100=total damage to plant; 0=no damage to plant). Alopecurus myosuroides (ALOMY), Avena fatua (AVEFA), Lolium perenne (LOLPE), Setaria faberi (SETFA), Digitaria sanguinalis (DIGSA), Echinochloa crus-galli (ECHCG)

[2] = test system: Alopecurus myosuroides (ALOMY); assay: as above; conditions: Rate 250 g/ha, evaluated 19 or 20 days later, read-out: Pre-Emergence Activity ALOMY (100=total damage to plant; 0=no damage to plant)
Procedure: as §1

[3] = test system: Echinochloa crus-galli (ECHCG); assay: as above; conditions: Rate 250 g/ha, evaluated 19 or 20 days later, read-out: Pre-Emergence Activity ECHCG (100=total damage to plant; 0=no damage to plant)
Procedure: as §1

Setaria faberi (SETFA) [4] = assay: as above; conditions: Rate 250 g/ha, evaluated 19 or 20 days later, read-out: Pre-Emergence Activity SETFA (100=total damage to plant; 0=no damage to plant)
Procedure: as §1

Lolium perenne (LOLPE) [5] = assay: as above; conditions: Rate 250 g/ha, evaluated 19 or 20 days later, read-out: Pre-Emergence Activity LOLPE (100=total damage to plant; 0=no damage to plant)
Procedure: as §1

Avena fatua (AVEFA) [6] = assay: as above; conditions: Rate 250 g/ha, evaluated 19 or 20 days later, read-out: Pre-Emergence Activity AVEFA (100=total damage to plant; 0=no damage to plant)
Procedure: as §1

[7] = test system: Digitaria sanguinalis (DIGSA); assay: Example A post-emergence herbicidal activity, glasshouse pot test; conditions: Rate 125 g/ha, evaluated 14 or 15 days later, read-out: Post-Emergence Activity DIGSA (100=total damage to plant; 0=no damage to plant)
Procedure: as §1

[8] = test system: Alopecurus myosuroides (ALOMY); assay: as above; conditions: Rate 125 g/ha, evaluated 14 or 15 days later, read-out: Post-Emergence Activity ALOMY (100=total damage to plant; 0=no damage to plant)
Procedure: as §1

[9] = test system: Echinochloa crus-galli (ECHCG); assay: as above; conditions: Rate 125 g/ha, evaluated 14 or 15 days later, read-out: Post-Emergence Activity ECHCG (100=total damage to plant; 0=no damage to plant)
Procedure: as §1

Setaria faberi (SETFA) [10] = assay: as above; conditions: Rate 125 g/ha, evaluated 14 or 15 days later, read-out: Post-Emergence Activity SETFA (100=total damage to plant; 0=no damage to plant)
Procedure: as §1

Lolium perenne (LOLPE) [11] = assay: as above; conditions: Rate 125 g/ha, evaluated 14 or 15 days later, read-out: Post-Emergence Activity LOLPE (100=total damage to plant; 0=no damage to plant)
Procedure: as §1

Avena fatua (AVEFA) [12] = assay: as above; conditions: Rate 125 g/ha, evaluated 14 or 15 days later, read-out: Post-Emergence Activity AVEFA (100=total damage to plant; 0=no damage to plant)
Procedure: as §1

[13] = test system: Amaranthus retoflexus (AMARE); assay: Example B pre-emergence herbicidal activity, glasshouse pot test; conditions: Amaranthus retroflexus, 312 h, Rate 250 g/ha, evaluated after 13 days, read-out: Pre-Emergence Activity AMARE (100=total damage to plant; 0=no damage to plant)
Procedure: (§2) Seeds of a variety of test species were sown in standard soil in pots. After cultivation for one day (pre-emergence) or after 8 days cultivation (post-emergence) under controlled conditions in a glasshouse (at 24/16° C., day/night; 14 hours light; 65% humidity), the plants were sprayed with an aqueous spray solution derived from the formulation of the technical active ingredient in acetone/water (50:50) solution containing 0.5% Tween 20 (polyoxyethelyene sorbitan monolaurate, CAS RN 9005-64-5). The test plants were then grown in a glasshouse under controlled conditions in a glasshouse (at 24/16° C., day/night; 14 hours light; 65% humidity) and watered twice daily. After 13 days for pre and post-emergence, the test was evaluated (100=total damage to plant; 0=no damage to plant). Alopecurus myosuroides (ALOMY), Avena fatua (AVEFA), Setaria faberi (SETFA), Echinochloa crus-galli (ECHCG) and Amaranthus retoflexus (AMARE)

[14] = test system: Alopecurus myosuroides (ALOMY); assay: as above; conditions: 312 h, Rate 250 g/ha, evaluated after 13 days, read-out: Pre-Emergence Activity ALOMY (100=total damage to plant; 0=no damage to plant)
Procedure: as §2

[15] = test system: Echinochloa crus-galli (ECHCG); assay: as above; conditions: 312 h, Rate 250 g/ha, evaluated after 13 days, read-out: Pre-Emergence Activity ECHCG (100=total damage to plant; 0=no damage to plant)
Procedure: as §2

Setaria faberi (SETFA) [16] = assay: as above; conditions: 312 h, Rate 250 g/ha, evaluated after 13 days, read-out: Pre-Emergence Activity SETFA (100=total damage to plant; 0=no damage to plant)
Procedure: as §2

Avena fatua (AVEFA) [17] = assay: as above; conditions: 312 h, Rate 250 g/ha, evaluated after 13 days, read-out: Pre-Emergence Activity AVEFA (100=total damage to plant; 0=no damage to plant)
Procedure: as §2

[18] = test system: Amaranthus retoflexus (AMARE); assay: Example B post-emergence herbicidal activity, glasshouse pot test; conditions: Amaranthus retroflexus, 312 h, rate 250 g/ha, evaluated after 13 days, read-out: Post-emergence activity AMARE (100=total damage to plant; 0=no damage to plant)
Procedure: as §2

[19] = test system: Alopecurus myosuroides (ALOMY); assay: as above; conditions: 312 h, rate 250 g/ha, evaluated after 13 days, read-out: Post-emergence activity ALOMY (100=total damage to plant; 0=no damage to plant)
Procedure: as §2

[20] = test system: Echinochloa crus-galli (ECHCG); assay: as above; conditions: 312 h, rate 250 g/ha, evaluated after 13 days, read-out: Post-emergence activity ECHCG (100=total damage to plant; 0=no damage to plant)
Procedure: as §2

Setaria faberi (SETFA) [21] = assay: as above; conditions: 312 h, rate 250 g/ha, evaluated after 13 days, read-out: Post-emergence activity SETFA (100=total damage to plant; 0=no damage to plant)
Procedure: as §2

Avena fatua (AVEFA) [22] = assay: as above; conditions: 312 h, rate 250 g/ha, evaluated after 13 days, read-out: Post-emergence activity AVEFA (100=total damage to plant; 0=no damage to plant)
Procedure: as §2

Row | SMILES | pest or weed control at 250 g/ha [1] | pest or weed control at 250 g/ha [2] | pest or weed control at 250 g/ha [3] | pest or weed control at 250 g/ha (Setaria faberi (SETFA) [4]) | pest or weed control at 250 g/ha (Lolium perenne (LOLPE) [5]) | pest or weed control at 250 g/ha (Avena fatua (AVEFA) [6]) | pest or weed control at 125 g/ha [7] | pest or weed control at 125 g/ha [8] | pest or weed control at 125 g/ha [9] | pest or weed control at 125 g/ha (Setaria faberi (SETFA) [10]) | pest or weed control at 250 g/ha [13] | pest or weed control at 250 g/ha [14] | pest or weed control at 250 g/ha [15] | pest or weed control at 250 g/ha (Setaria faberi (SETFA) [16]) | pest or weed control at 250 g/ha (Avena fatua (AVEFA) [17]) | pest or weed control at 250 g/ha [18] | pest or weed control at 250 g/ha [19] | pest or weed control at 250 g/ha [20] | pest or weed control at 250 g/ha (Setaria faberi (SETFA) [21]) | pest or weed control at 250 g/ha (Avena fatua (AVEFA) [22]) | other results
1 | Cc1sc(-c2ccc(Cl)cc2)nc1C1C(=O)[C@H]2[C@@H]3CC[C@@](C)(O3)[C@H]2C1=O (mixture of isomers) [Compound T24] | 100% | 90% | 100% | 100% | 90% | 60% | 90% | 70% | 100% | 80% |  |  |  |  |  |  |  |  |  |  | pest or weed control at 125 g/ha (Lolium perenne (LOLPE) [11]): 30%; pest or weed control at 125 g/ha (Avena fatua (AVEFA) [12]): 70%
2 | CCc1sc(-c2ccc(Cl)cc2)nc1C1C(=O)[C@H]2[C@@H]3CC[C@@](C)(O3)[C@H]2C1=O (mixture of isomers) [Compound T25, 4-[2-(4-chloro-phenyl)-5-ethyl-thiazol-4-yl]-1-methyl-10-oxa-tricyclo[5.2.1.0*2,6*]decane-3,5-dione] | 100% | 90% | 100% | 100% | 100% | 90% | 100% | 100% | 100% | 90% |  |  |  |  |  |  |  |  |  |  | pest or weed control at 125 g/ha (Lolium perenne (LOLPE) [11]): 50%; pest or weed control at 125 g/ha (Avena fatua (AVEFA) [12]): 100%
3 | Cc1sc(-c2ccc(Cl)cc2)cc1C1=C(OC(=O)C(C)(C)C)[C@@H]2[C@H](C1=O)[C@H]1CC[C@@H]2O1 (racemic) [Compound P1] | 0% | 30% | 20% | 0% | 30% | 0% | 80% | 70% | 100% | 90% |  |  |  |  |  |  |  |  |  |  | pest or weed control at 125 g/ha (Lolium perenne (LOLPE) [11]): 60%; pest or weed control at 125 g/ha (Avena fatua (AVEFA) [12]): 80%
4 | Cc1sc(-c2ccc(Cl)cc2)cc1C1=C(OC(=O)C(C)C)[C@@H]2[C@H](C1=O)[C@H]1CC[C@@H]2O1 (racemic) [Compound P2] | 0% | 30% | 50% | 0% | 50% | 0% | 80% | 90% | 100% | 80% |  |  |  |  |  |  |  |  |  |  | pest or weed control at 125 g/ha (Lolium perenne (LOLPE) [11]): 70%; pest or weed control at 125 g/ha (Avena fatua (AVEFA) [12]): 90%
5 | CCc1sc(-c2ccc(SC)cc2)nc1C1C(=O)[C@@H]2[C@H](C1=O)[C@H]1CC[C@@H]2O1 (some centres unmarked) [Compound T50] |  |  |  |  |  |  |  |  |  |  | 0% | 40% | 90% | 90% | 0% | 0% | 90% | 100% | 100% | 90% | 
6 | Cc1sc(-c2ccc(C(C)C)cc2)nc1C1C(=O)[C@@H]2[C@H](C1=O)[C@H]1CC[C@@H]2O1 (some centres unmarked) [Compound T51] |  |  |  |  |  |  |  |  |  |  | 0% | 80% | 100% | 100% | 90% | 0% | 90% | 100% | 90% | 80% | 
7 | Cc1sc(-c2ccc(OC(F)F)cc2Cl)nc1C1C(=O)[C@@H]2[C@H](C1=O)[C@H]1CC[C@@H]2O1 (some centres unmarked) [Compound T52] |  |  |  |  |  |  |  |  |  |  | 0% | 70% | 100% | 100% | 90% | 0% | 100% | 100% | 100% | 100% | 
8 | Cc1cnc(-c2ccc(Cl)cc2)nc1C1C(=O)[C@@H]2[C@H](C1=O)[C@H]1CC[C@@H]2O1 (some centres unmarked) [Compound T53] |  |  |  |  |  |  |  |  |  |  | 90% | 50% | 80% | 90% | 70% | 0% | 60% | 90% | 100% | 70% | 
9 | Cc1sc(-c2ccc(OC(F)F)cc2F)nc1C1C(=O)[C@@H]2[C@H](C1=O)[C@H]1CC[C@@H]2O1 (some centres unmarked) [Compound T54] |  |  |  |  |  |  |  |  |  |  | 0% | 90% | 100% | 100% | 100% | 40% | 100% | 100% | 100% | 100% | 
